In US10517862B2, “Fused heterocyclic compound derivative and application thereof” (NHWA PHARMA. CORPORATION, priority 2015, dated 2019):

What was measured:
5HT2C receptor = target: T1, 5HT2C receptor (Rattus norvegicus, UniProt P08909); assay: 5HT2C receptor binding assay ([3H]-mesulergine, rat striatum membrane); details: for affinity with 5HT2C (in words): summary of in vitro assay; for inhibition at 10 µM: test compound final concentration 10^−5 M, [3H]-mesulergine, rat striatum membrane, read-out: 5HT2C Inhibition rate (%)
T1 construct: from tissue; host or cells: rat brain striatum
T1 sequence (P08909 33-460): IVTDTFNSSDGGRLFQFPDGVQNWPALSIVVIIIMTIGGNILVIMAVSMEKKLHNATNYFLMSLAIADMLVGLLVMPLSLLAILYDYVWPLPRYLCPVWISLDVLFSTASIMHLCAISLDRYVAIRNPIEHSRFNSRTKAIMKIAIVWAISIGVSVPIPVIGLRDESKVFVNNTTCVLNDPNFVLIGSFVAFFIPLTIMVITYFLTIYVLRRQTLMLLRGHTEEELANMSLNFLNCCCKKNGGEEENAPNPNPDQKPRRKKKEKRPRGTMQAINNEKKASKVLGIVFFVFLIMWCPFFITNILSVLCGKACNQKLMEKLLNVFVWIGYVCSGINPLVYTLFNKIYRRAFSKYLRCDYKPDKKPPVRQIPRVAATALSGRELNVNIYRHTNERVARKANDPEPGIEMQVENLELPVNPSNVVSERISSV
Procedure: Preparation of 5HT2C Membrane
Rats were decapitated on ice. […] Centrifugation was conducted.
(§1) Materials for the Receptor Binding Assay

5HT1A receptor = target: T2, 5HT1A receptor (Rattus norvegicus, UniProt P19327); assay: 5HT1A receptor binding assay (3H-8-OH-DPAT, rat striatum membrane); details: for affinity with 5HT1A (in words): summary of in vitro assay; for inhibition at 10 µM: test compound final concentration 10^−5 M, 3H-8-OH-DPAT, rat striatum membrane, read-out: 5HT1A Inhibition rate (%)
T2 construct: Rats were decapitated on ice; from tissue; host or cells: rat brain striatum
T2 sequence (P19327 1-422): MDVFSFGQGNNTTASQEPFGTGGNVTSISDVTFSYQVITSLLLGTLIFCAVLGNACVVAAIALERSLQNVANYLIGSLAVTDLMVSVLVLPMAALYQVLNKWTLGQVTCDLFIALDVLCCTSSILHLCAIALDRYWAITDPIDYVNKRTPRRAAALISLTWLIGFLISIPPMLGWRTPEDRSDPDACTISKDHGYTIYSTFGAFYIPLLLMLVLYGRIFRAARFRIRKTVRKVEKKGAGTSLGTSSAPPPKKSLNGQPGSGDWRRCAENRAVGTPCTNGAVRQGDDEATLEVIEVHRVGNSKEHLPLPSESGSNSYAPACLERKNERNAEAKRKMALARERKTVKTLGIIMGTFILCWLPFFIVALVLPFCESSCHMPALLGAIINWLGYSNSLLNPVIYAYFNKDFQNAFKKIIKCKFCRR
Procedure: Preparation of 5HT1A Membrane
Rats were decapitated on ice. […] Incubation at 37° C. was conducted for 10 min. […] Centrifugation was conducted at 12000 rpm, 4° C. for 20 min. […] Centrifugation was conducted and repeated 3 times.
as §1

Row | SMILES | affinity with 5HT2C (in words) (5HT2C receptor) | inhibition at 10 µM (5HT2C receptor) [%] | affinity with 5HT1A (in words) (5HT1A receptor) | inhibition at 10 µM (5HT1A receptor) [%]
1 | O=C(CCCN1CCC(c2noc3cc(F)ccc23)CC1)c1cc2c3c(c1)CCC(=O)N3CCC2 [Compound 5] | low affinities | 66.8 | high affinities | 99.8
2 | O=C(CCN1CCC(c2noc3cc(F)ccc23)CC1)c1cc2c3c(c1)CCN3C(=O)CC2 [Compound 12] | low affinities | 56.5 | high affinities | 96.5
